Source: PMC8151276, “An Integrated Approach toward NanoBRET Tracers for Analysis of GPCR Ligand Engagement” (Molecules, 2021)

What was measured:
Assay type in all cases: binding
CCR9 = target: T1, CCR9 (Homo sapiens, UniProt P51686); experiment: NanoBRET screen HiBiT-CCR9 in HEK293; conditions: CCR9
T1 construct: purchased Promega (in-house HiBiT-GPCR construct library, NanoBRET)
T1 sequence (P51686 1-369): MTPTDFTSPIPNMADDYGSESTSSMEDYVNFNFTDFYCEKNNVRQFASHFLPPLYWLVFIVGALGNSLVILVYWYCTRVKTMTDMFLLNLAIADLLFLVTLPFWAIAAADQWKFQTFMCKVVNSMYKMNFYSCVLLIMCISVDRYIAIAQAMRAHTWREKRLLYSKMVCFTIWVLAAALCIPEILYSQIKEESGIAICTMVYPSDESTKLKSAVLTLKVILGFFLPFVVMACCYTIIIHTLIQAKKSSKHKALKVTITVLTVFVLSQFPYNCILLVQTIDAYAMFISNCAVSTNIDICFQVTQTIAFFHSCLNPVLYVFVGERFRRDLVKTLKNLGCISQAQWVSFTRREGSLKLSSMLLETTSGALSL
Description: (§1) Each tracer candidate was screened across the entire library of HiBiT-GPCR constructs using NanoBRET as the detection modality. As depicted in Figure 4A, the specificity of interactions was evaluated through decrease in BRET due to competitive displacement of a bound tracer by excess parental compound. Each tracer was analyzed for binding to each HiBiT-GPCR fusion in the absence and in the presence of competing parental compound. Briefly, HEK293 cells were transfected with HiBiT-GPCR constructs diluted into promoterless DNA to reduce expression and maximize translocation to the cell surface. Each tracer candidate was then screened at concentrations of 1 μM and 0.1 μM across cells expressing these fusions. Cells were treated for 1.5 h with tracer either alone or in the presence of 20 μM competing parental compound (i.e., control). BRET was measured upon addition of purified LgBiT and subsequent complementation with HiBiT genetically fused to a GPCR. The specificity of interactions was assessed through a decrease in BRET signal due to competitive displacement of the bound tracer. To further gauge the robustness of these interactions, the fold response over the control (i.e., BRETtracer/BRETcontrol) was calculated. We chose a 1.5-fold response, which translates to ≥7-fold signal over noise as the minimal threshold required to score an interaction as positive. […]. Below we highlight the screening results obtained for our exemplary fluorescent tracers based on Clozapine, Amitriptyline and AZD1283.
(§2) HiBiT-GPCR DNA constructs were diluted in 10 mM Tris pH 8 to a final concentration of 0.01 μg/μL, arrayed in 96-well plates and stored at −20 °C. For transfection, HEK293 cells were suspended in Opti-MEM (without phenol red) supplemented with 2% fetal bovine serum (Seradigm) and 100 units/mL penicillin–streptomycin (Gibco) at a final concentration of 220,000 cells/mL and dispensed into white 96-well plates at 90 μL/well. Subsequent transfections and screens were carried using an Agilent Bravo Automated Liquid Handling Platform. First, the 96-well HiBiT DNA arrays were diluted 25-fold in Opti-MEM (without serum or phenol red) to a final concentration of 0.0004 μg/μL and 20 μL of the diluted DNAs were transferred into new 96-well plates. Next, promoterless carrier DNA (1 μg/μL) was diluted 25-fold (0.04 μg/μL) and then dispensed into the diluted arrays at 20 μL/well. Following brief mixing, Viafect transfection reagent (Promega) diluted 16-fold into Opti-MEM was dispensed into the plates at 40 μL/well. After mixing by pipetting, plates were incubated for 10 min on the pipetting station deck. The DNA-transfection reagent complexes were then added to plates containing cells. To facilitate the screen, 10 μL of DNA-transfection reagent complexes were added in duplicates to the top 4 and bottom 4 rows, resulting in two identical 48-well arrays per plate. Plates with transfected cells were incubated for 18–20 h at 37 °C/5% CO2. A screen of each tracer across the entire library using two different concentrations requires duplicate plates of transfected cells. Depending on the number of tracers being screened, transfections can be scaled up using the same ratios. The next day, for each tracer, four 20× screening solutions in tracer dilution buffer (Promega) were prepared: two duplicates at final concentration of 20 μM and two duplicates at a final concentration of 2 μM. A competing unmodified compound was added to one of each duplicate at a final concentration of 400 μM. The four resulting solutions were diluted 4-fold in Opti-MEM without serum or phenol red to generate 5× solutions (5 µM and 0.5 µM tracer +/− 100 μM competing compound). To screen the library, a BioTek MultiFlo FX liquid dispenser was used to dispense 22.5 µL of tracer solution to the top 4 rows and 22.5 µL tracer + competing compound solution to the 4 bottom rows. Plates were briefly mixed on an orbital shaker and incubated for 1.5 h at room temperature. […]

TBXA2R = target: T2, TBXA2R (Homo sapiens, UniProt P21731); experiment: NanoBRET screen HiBiT-TBXA2R in HEK293; conditions: TBXA2R
T2 construct: purchased Promega (in-house HiBiT-GPCR construct library, NanoBRET)
T2 sequence (P21731 1-343): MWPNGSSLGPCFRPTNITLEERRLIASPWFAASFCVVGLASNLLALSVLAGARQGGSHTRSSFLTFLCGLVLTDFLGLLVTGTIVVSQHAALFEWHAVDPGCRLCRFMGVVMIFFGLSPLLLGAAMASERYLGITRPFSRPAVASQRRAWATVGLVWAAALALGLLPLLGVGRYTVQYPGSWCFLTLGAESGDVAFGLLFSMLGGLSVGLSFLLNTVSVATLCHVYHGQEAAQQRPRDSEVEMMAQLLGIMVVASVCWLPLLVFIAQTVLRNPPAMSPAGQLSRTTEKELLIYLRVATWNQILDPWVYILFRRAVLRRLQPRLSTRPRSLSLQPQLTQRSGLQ
Description: as §1, §2

PTGER2 = target: T3, PTGER2 (Homo sapiens, UniProt P43116); experiment: NanoBRET screen HiBiT-PTGER2 in HEK293; conditions: PTGER2
T3 construct: purchased Promega (in-house HiBiT-GPCR construct library, NanoBRET)
T3 sequence (P43116 whole entry): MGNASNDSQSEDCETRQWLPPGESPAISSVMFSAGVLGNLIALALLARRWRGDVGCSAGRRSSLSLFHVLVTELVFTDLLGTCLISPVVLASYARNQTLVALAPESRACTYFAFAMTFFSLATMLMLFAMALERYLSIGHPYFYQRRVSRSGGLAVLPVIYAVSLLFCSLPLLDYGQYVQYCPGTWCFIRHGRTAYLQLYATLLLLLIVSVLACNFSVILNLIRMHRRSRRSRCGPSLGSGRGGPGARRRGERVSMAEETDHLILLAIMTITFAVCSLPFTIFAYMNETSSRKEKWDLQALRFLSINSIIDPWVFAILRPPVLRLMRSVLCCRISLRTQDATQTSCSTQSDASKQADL
Description: as §1, §2

| SMILES | NanoBRET Fold Response (CCR9; 0.1μM tracer) | NanoBRET Fold Response (CCR9; 1μM tracer) | NanoBRET Fold Response (TBXA2R; 0.1μM tracer) | NanoBRET Fold Response (TBXA2R; 1μM tracer) | NanoBRET Fold Response (PTGER2; 0.1μM tracer) | NanoBRET Fold Response (PTGER2; 1μM tracer) | NanoBRET Fold Response (CCR9; tracer 0.1μM) | NanoBRET Fold Response (CCR9; tracer 1μM) | NanoBRET Fold Response (TBXA2R; tracer 0.1μM) | NanoBRET Fold Response (TBXA2R; tracer 1μM) | NanoBRET Fold Response (PTGER2; tracer 0.1μM) | NanoBRET Fold Response (PTGER2; tracer 1μM) |
| --- | --- | --- | --- | --- | --- | --- | --- | --- | --- | --- | --- | --- |
| O=C(CCOCCOCCOCCOCCNC(=O)CCc1ccc2n1[B-](F)(F)[N+]1=C(c3ccc[nH]3)C=CC1=C2)NCCCN1CCN(C2=Nc3cc(Cl)ccc3Nc3ccccc32)CC1 [Clozapine-a-2-NB590] | 1.03 | 1.05 | 1.08 | 1.08 | 1.01 | 1.05 | – | – | – | – | – | – |
| CN1CCN(C2=Nc3cc(Cl)ccc3Nc3ccc(CNC(=O)CCOCCOCCOCCOCCNC(=O)CCc4ccc5n4[B-](F)(F)[N+]4=C(c6ccc[nH]6)C=CC4=C5)cc32)CC1 [Clozapine-b-2-NB590] | 1.01 | 0.92 | 0.98 | 1.08 | 1.01 | 0.98 | – | – | – | – | – | – |
| CN1CCN(C2=Nc3cc(Cl)ccc3N(CC(=O)NCCOCCOCCOCCOCCNC(=O)CCc3ccc4n3[B-](F)(F)[N+]3=C(c5ccc[nH]5)C=CC3=C4)c3ccccc32)CC1 [Clozapine-c-2-NB590] | 1.02 | 0.87 | 1.03 | 0.95 | 0.98 | 1.09 | – | – | – | – | – | – |
| O=C(CCOCCOCCOCCOCCNC(=O)CCc1ccc2n1[B-](F)(F)[N+]1=C(c3ccc[nH]3)C=CC1=C2)NCCCN1CCN(C2=Nc3ccccc3Oc3ccc(Cl)cc32)CC1 [Loxapine-a-2-NB590] | – | – | – | – | – | – | 1.02 | 0.91 | 0.99 | 1.03 | 1.03 | 1.03 |
| COc1ccccc1N1CCN(CCCCN2C(=O)c3ccc(CNC(=O)CCOCCOCCOCCOCCNC(=O)CCc4ccc5n4[B-](F)(F)[N+]4=C(c6ccc[nH]6)C=CC4=C5)cc3C2=O)CC1 [NAN-190-2-NB590] | – | – | – | – | – | – | 0.98 | 0.99 | 1.07 | 1.06 | 1.02 | 0.98 |
| COc1ccccc1N1CCN(CCCCN2C(=O)c3ccc(CNC(=O)CCOCCNC(=O)c4ccc(CNC(=O)CCc5ccc6n5[B-](F)(F)[N+]5=C(c7ccc[nH]7)C=CC5=C6)cc4)cc3C2=O)CC1 [NAN-190-3-NB590] | – | – | – | – | – | – | 1.14 | 1.04 | 1.08 | 1.15 | 1.06 | 1.00 |
| O=C(CCc1ccc2n1[B-](F)(F)[N+]1=C(c3ccc[nH]3)C=CC1=C2)NCc1ccc(C(=O)NCCOCCC(=O)N[C@@H]2CC[C@@]3(O)[C@H]4Cc5ccc(O)c6c5[C@@]3(CCN4CC3CC3)[C@H]2O6)cc1 [Naltrexone-3-NB590] | – | – | – | – | – | – | 0.55 | 0.92 | 1.24 | 1.13 | 1.04 | 1.00 |
| Cc1cc2c(s1)Nc1ccccc1N=C2N1CCN(CCCNC(=O)CCOCCOCCOCCOCCNC(=O)CCc2ccc3n2[B-](F)(F)[N+]2=C(c4ccc[nH]4)C=CC2=C3)CC1 [Olanzapine-a-2-NB590] | – | – | – | – | – | – | 1.03 | 1.17 | 0.95 | 1.02 | 1.03 | 0.98 |
